Patent publication US7332501B2, “Indol-3-yl-carbonyl-spiro-piperidine derivatives as V1a receptor antagonists” (Hoffmann-La Roche Inc., priority 2005, dated 2008)
pKi: −log10 of the molar value.

Each compound was assayed against T1, human V1a receptor (Homo sapiens, UniProt P37288) (assay: human V1a receptor binding (3H-Vasopressin SPA, HEK293 membranes)). Settings: displacement of 4 nM 3H-Vasopressin, membranes of HEK293 cells transiently transfected with human V1a receptor; Ki from IC50 by Cheng-Prussoff.
T1 construct: expressed in transfected cells; host or cells: HEK293 cells, transiently transfected; cell membranes
Procedure: The human V1a receptor was cloned by RT-PCR from total human liver RNA. The coding sequence was subcloned in an expression vector after sequencing to confirm the identity of the amplified sequence. […] Cell membranes were prepared from HEK293 cells transiently transfected with the expression vector and grown in 20 liter fermenters with the following protocol.
50 g cells are resuspended in 30 ml freshly prepared ice cold Lysis buffer (50 mM HEPES, 1 mM EDTA, 10 mM MgCl2 adjusted to pH=7.4+complete cocktail of protease inhibitor (Roche Diagnostics)). The cells are homogenized with Polytron for 1 min and sonicated on ice for 2×2 minutes at 80% intensity (Vibracell sonicator). The preparation is centrifuged 20 min at 500 g at 4° C., the pellet is discarded and the supernatant centrifuged 1 hour at 43,000 g at 4° C. (19,000 rpm). The pellet is resuspended in 12.5 ml Lysis buffer+12.5 ml Sucrose 20% and homogenized using a Polytron for 1-2 min. The protein concentration is determined by the Bradford method and aliquots are stored at −80° C. until use. For binding studies 60 mg Yttrium silicate SPA beads (Amersham) are mixed with an aliquot of membrane in binding buffer (50 mM Tris, 120 mM NaCl, 5 mM KCl, 2 mM CaCl2, 10 mM MgCl2) for 15 minutes with mixing. 50 ul of bead/membrane mixture is then added to each well of a 96 well plate, followed by 50 ul of 4 nM 3H-Vasopressin (American Radiolabeled Chemicals). For total binding measurement 100 ul of binding buffer are added to the respective wells, for non-specific binding 100 ul of […] cold vasopressin and for compound testing 100 ul of a serial dilution of each compound in 2% DMSO. The plate is incubated 1 h at room temperature, centrifuged 1 min at 1000 g and counted on a Packard Top-Count. Non-specific binding counts are subtracted from each well and data is normalized to the maximum specific binding set at 100%. To calculate an IC 50 the curve is fitted using a non-linear regression model (XLfit), and the Ki is calculated using the Cheng-Prussoff equation.

T1 sequence (P37288 whole entry): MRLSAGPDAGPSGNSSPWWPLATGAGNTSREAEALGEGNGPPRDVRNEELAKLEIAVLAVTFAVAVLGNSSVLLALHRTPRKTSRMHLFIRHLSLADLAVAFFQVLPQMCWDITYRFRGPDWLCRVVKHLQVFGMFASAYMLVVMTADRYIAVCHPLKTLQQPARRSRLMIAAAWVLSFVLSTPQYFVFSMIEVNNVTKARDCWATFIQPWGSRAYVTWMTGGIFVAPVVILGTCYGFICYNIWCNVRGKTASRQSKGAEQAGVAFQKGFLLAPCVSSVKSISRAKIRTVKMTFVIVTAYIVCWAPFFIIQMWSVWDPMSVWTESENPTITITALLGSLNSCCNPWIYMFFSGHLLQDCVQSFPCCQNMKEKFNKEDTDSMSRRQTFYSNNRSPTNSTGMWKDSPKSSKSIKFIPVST

| Compound | pKi |
| --- | --- |
| 1′-({6-Chloro-1-[(2S)-pyrrolidin-2-ylmethyl]-1H-indol-3-yl}carbonyl)-3H-spiro[2-benzofuran-1,4′-piperidine [Example 267] | 8.85 |
| Cc1c(C(=O)N2C[C@H](C)C3(OC(=O)c4ccccc43)[C@@H](C)C2)c2ccccc2n1Cc1ccccc1 (racemic) [Example 15, (SS,RR)-1′-[(1-benzyl-2-methyl-1H-indol-3-yl)carbonyl]-3′,5′-dimethyl-3H-spiro[2-benzofuran-1,4′-piperidin]-3-one] | 7.83 |
| Cc1c(C(=O)N2CCC3(C=Cc4ccccc43)CC2)c2ccccc2n1Cc1ccccc1 [Example 1, 1′-[(1-benzyl-2-methyl-1H-indol-3-yl)carbonyl]spiro[indene-1,4′-piperidine]] | 8.17 |
| Cc1c(C(=O)N2CCC3(CCc4ccccc43)CC2)c2ccccc2n1Cc1ccccc1 [Example 2, 1′-[(1-benzyl-2-methyl-1H-indol-3-yl)carbonyl]-2,3-dihydrospiro[indene-1,4′-piperidine]] | 7.79 |
| O=C(c1cn(Cc2ccccc2)c2ccccc12)N1CCC2(C=Cc3ccccc32)CC1 [Example 3, 1′-[(1-benzyl-1H-indol-3-yl)carbonyl]spiro[indene-1,4′-piperidine]] | 8.00 |
| O=C(c1c[nH]c2cc(Cl)ccc12)N1CCC2(C=Cc3ccccc32)CC1 [Example 5, 1′-[(6-chloro-1H-indol-3-yl)carbonyl]spiro[indene-1,4′-piperidine]] | 8.09 |
| O=C(c1c[nH]c2cc(Cl)ccc12)N1CCC2(CCc3ccccc32)CC1 [Example 6, 1′-[(6-chloro-1H-indol-3-yl)carbonyl]-2,3-dihydrospiro[indene-1,4′-piperidine]] | 7.71 |
| O=C(c1c[nH]c2cc(Cl)ccc12)N1CCC2(CC1)CNc1ccccc12 [Example 8, 1′-[(6-chloro-1H-indol-3-yl)carbonyl]-1,2-dihydrospiro[indole-3,4′-piperidine]] | 7.57 |
| Cc1c(C(=O)N2CCC3(CC2)CNc2ccccc23)c2ccccc2n1Cc1ccccc1 [Example 9, 1′-[(1-benzyl-2-methyl-1H-indol-3-yl)carbonyl]-1,2-dihydrospiro[indole-3,4′-piperidine]] | 8.01 |
| Cc1c(C(=O)N2CCC3(CC2)OC(=O)c2ccc(Cl)cc23)c2ccccc2n1Cc1ccccc1 [Example 10, 1′-[(1-benzyl-2-methyl-1H-indol-3-yl)carbonyl]-6-chloro-3H-spiro[2-benzofuran-1,4′-piperidin]-3-one] | 7.90 |
| Cc1c(C(=O)N2CCC3(CC2)OC(=O)c2c(F)cccc23)c2ccccc2n1Cc1ccccc1 [Example 11, 1′-[(1-benzyl-2-methyl-1H-indol-3-yl)carbonyl]-4-fluoro-3H-spiro[2-benzofuran-1,4′-piperidin]-3-one] | 7.95 |
| COc1ccc2c(c1)C1(CCN(C(=O)c3c(C)n(Cc4ccccc4)c4ccccc34)CC1)OC2=O [Example 12, 1′-[(1-benzyl-2-methyl-1H-indol-3-yl)carbonyl]-6-methoxy-3H-spiro[2-benzofuran-1,4′-piperidin]-3-one] | 8.47 |
| COc1ccc2c(c1)C(=O)OC21CCN(C(=O)c2c(C)n(Cc3ccccc3)c3ccccc23)CC1 [Example 13, 1′-[(1-benzyl-2-methyl-1H-indol-3-yl)carbonyl]-5-methoxy-3H-spiro[2-benzofuran-1,4′-piperidin]-3-one] | 8.02 |
| Cc1c(C(=O)N2CCC3(CC2)OC(=O)c2cccc(Cl)c23)c2ccccc2n1Cc1ccccc1 [Example 14, 1′-[(1-benzyl-2-methyl-1H-indol-3-yl)carbonyl]-7-chloro-3H-spiro[2-benzofuran-1,4′-piperidin]-3-one] | 7.95 |
| O=C1OC2(CCN(C(=O)c3c[nH]c4cc(Cl)ccc34)CC2)c2ccccc21 [Example 16, 1′-[(6-chloro-1H-indol-3-yl)carbonyl]-3H-spiro[2-benzofuran-1,4′-piperidin]-3-one] | 8.36 |
| O=C1OC2(CCN(C(=O)c3c[nH]c4cc(Cl)ccc34)CC2)c2ccc(F)cc21 [Example 19, 1′-[(6-chloro-1H-indol-3-yl)carbonyl]-5-fluoro-3H-spiro[2-benzofuran-1,4′-piperidin]-3-one] | 8.17 |
| O=C1OC2(CCN(C(=O)c3c[nH]c4cc(Cl)ccc34)CC2)c2cc(Cl)ccc21 [Example 20, 6-chloro-1′-[(6-chloro-1H-indol-3-yl)carbonyl]-3H-spiro[2-benzofuran-1,4′-piperidin]-3-one] | 7.80 |
| Cc1c(C(=O)N2CCC3(CC2)OC(=O)c2cc(F)ccc23)c2ccccc2n1Cc1ccccc1 [Example 23, 1′-[(1-benzyl-2-methyl-1H-indol-3-yl)carbonyl]-5-fluoro-3H-spiro[2-benzofuran-1,4′-piperidin]-3-one] | 7.96 |
| CC1CCN(C(=O)c2[nH]c3cc(Cl)ccc3c2C(=O)N2CCC3(CC2)OC(=O)c2cc(F)ccc23)CC1 [Example 24, 1′-({6-chloro-2-[(4-methylpiperidin-1-yl)carbonyl]-1H-indol-3-yl}carbonyl)-5-fluoro-3H-spiro[2-benzofuran-1,4′-piperidin]-3-one] | 7.48 |
| NC(=O)c1[nH]c2cc(Cl)ccc2c1C(=O)N1CCC2(CC1)OC(=O)c1cc(F)ccc12 [Example 25, 6-chloro-3-[(5-fluoro-3-oxo-1′H,3H-spiro[2-benzofuran-1,4′-piperidin]-1′-yl)carbonyl]-1H-indole-2-carboxamide] | 7.69 |
| CN(C)CCNC(=O)c1[nH]c2cc(Cl)ccc2c1C(=O)N1CCC2(CC1)OC(=O)c1cc(F)ccc12 [Example 26, 6-chloro-N-[2-(dimethylamino)ethyl]-3-[(5-fluoro-3-oxo-1′H,3H-spiro[2-benzofuran-1,4′-piperidin]-1′-yl)carbonyl]-1H-indole-2-carboxamide] | 7.40 |
| CN(C)C(=O)c1[nH]c2cc(Cl)ccc2c1C(=O)N1CCC2(CC1)OC(=O)c1cc(F)ccc12 [Example 29, 6-chloro-3-[(5-fluoro-3-oxo-1′H,3H-spiro[2-benzofuran-1,4′-piperidin]-1′-yl)carbonyl]-N,N-dimethyl-1H-indole-2-carboxamide] | 8.00 |
| CN(CCNC(=O)c1[nH]c2cc(Cl)ccc2c1C(=O)N1CCC2(CC1)OC(=O)c1cc(F)ccc12)C(=O)OC(C)(C)C [Example 30, tert-butyl {2-[({6-chloro-3-[(5-fluoro-3-oxo-1′H,3H-spiro[2-benzofuran-1,4′-piperidin]-1′-yl)carbonyl]-1H-indol-2-yl}carbonyl)amino]ethyl}methylcarbamate] | 8.24 |
| CCN(CC)C(=O)c1[nH]c2cc(Cl)ccc2c1C(=O)N1CCC2(CC1)OC(=O)c1cc(F)ccc12 [Example 31, 6-chloro-N,N-diethyl-3-[(5-fluoro-3-oxo-1′H,3H-spiro[2-benzofuran-1,4′-piperidin]-1′-yl)carbonyl]-1H-indole-2-carboxamide] | 7.91 |
| CN1CCN(C(=O)c2[nH]c3cc(Cl)ccc3c2C(=O)N2CCC3(CC2)OC(=O)c2cc(F)ccc23)CC1 [Example 32, 1′-({6-chloro-2-[(4-methylpiperazin-1-yl)carbonyl]-1H-indol-3-yl}carbonyl)-5-fluoro-3H-spiro[2-benzofuran-1,4′-piperidin]-3-one] | 7.56 |
| O=C1OC2(CCN(C(=O)c3c(C(=O)N4CCCCC4)[nH]c4cc(Cl)ccc34)CC2)c2ccc(F)cc21 [Example 33, 1′-{[6-chloro-2-(piperidin-1-ylcarbonyl)-1H-indol-3-yl]carbonyl}-5-fluoro-3H-spiro[2-benzofuran-1,4′-piperidin]-3-one] | 7.97 |
| Cc1c(C(=O)N2CCC3(CC2)OC(=O)c2cc4c(cc23)OCO4)c2ccccc2n1Cc1ccccc1 [Example 34, 1′-[(1-benzyl-2-methyl-1H-indol-3-yl)carbonyl]-7H-spiro[furo[3,4-f][1,3]benzodioxole-5,4′-piperidin]-7-one] | 8.68 |
| N#CCCn1cc(C(=O)N2CCC3(CC2)OC(=O)c2ccccc23)c2ccc(Cl)cc21 [Example 35, 3-{6-chloro-3-[(3-oxo-1′H,3H-spiro[2-benzofuran-1,4′-piperidin]-1′-yl)carbonyl]-1H-indol-1-yl}propanenitrile] | 8.60 |
| N#CCn1cc(C(=O)N2CCC3(CC2)OC(=O)c2ccccc23)c2ccc(Cl)cc21 [Example 37, {6-chloro-3-[(3-oxo-1′H,3H-spiro[2-benzofuran-1,4′-piperidin]-1′-yl)carbonyl]-1H-indol-1-yl}acetonitrile] | 8.20 |
| Cc1c(C(=O)N2CCC3(CC2)OCc2ccccc23)c2ccccc2n1Cc1ccccc1 [Example 39, 1′-[(1-benzyl-2-methyl-1H-indol-3-yl)carbonyl]-3H-spiro[2-benzofuran-1,4′-piperidine]] | 8.74 |
